# Residues, ends and D or L forms follow the SMILES beside them. *: point of attachment. Tos = Cc1ccc(S(=O)(=O)*)cc1
row,melting point [°C],Structure (SMILES)
1,134 to 136,Cc1ccn(-c2ccc(C(=O)N3Cc4cccn4Cc4ccccc43)c(O)c2)n1
2,195 to 196,CC1CC(=O)NN=C1c1ccc(N)c(N)c1 (stereo not given)
3,230 to 232,NC(=O)c1nc(-c2cncc(Cl)c2)nc2c1[nH]c(=O)n2-c1ccccc1C(F)(F)F
4,185,CC(C)N(C(=S)Nc1ccc(NC(=S)N(C(C)C)C(C)C)cc1)C(C)C
5,108 to 115,CC(C)NCC(O)COc1ccc(C2=NNC(=O)CC2)cc1 (stereo not given)
6,92 to 93,CC(C)(C)OC(=O)Nc1ccn2nc(N3CCOCC3)nc2c1
7,173 to 174,CC(=O)Nc1cc(CCl)c(I)cn1
8,148 to 150,NC(=NCC(F)(F)F)Nc1ccnc(SCCCC(=O)NCCO)n1
9,163,COc1ccc(C(=O)Nc2nc3ccc(N(C)C)cc3c(NCc3cccs3)c2C#N)cc1
10,140 to 144,CCOc1cnc(C2=NC(=O)C(C)(C(C)C)N2)c(C(=O)O)c1 (stereo not given)
11,116,O=Cc1cccc2oc(-c3ccccc3)nc12
12,282 to 284,CCS(=O)(=O)c1ccc(-c2nc(-c3nc4cc(OC)cc(OC)c4c(=O)[nH]3)ccc2OCCO)cc1
13,166,Cc1nc(NC(=O)c2cnn3c(C(F)(F)F)cc(-c4ccc(C(F)(F)F)cc4)nc23)sc1S(=O)(=O)NCCO
14,157 to 160,O=C(O)CCn1ccc2cc(OCc3ccc4ccccc4n3)ccc21
15,58 to 61,CC(=O)O[C@H]1C[C@@H](n2cc(C)c(=O)[nH]c2=O)[C@H](O)[C@@H]1O (racemic)
16,82 to 84,Oc1cccc(O)c1CCC(F)(F)F
17,100 to 102,O=C(CCCCC1SCC2NC(=O)NC21)NCCOCCOCCN1C(=O)C(Br)=C(Br)C1=O (stereo not given)
18,67,CCCCCCCCCCCCCCCCOc1nc2ccc(C)cc2c(=O)o1
19,138 to 139,Cc1nnc(-c2ccc3occ(-c4cccc(F)c4)c3c2)o1
20,167 to 168,Cc1c(C)c(N2CCN(C(=O)OC(C)(C)C)CC2)c(C)c2c1OC(C)(C)C2N1CCCCC1 (stereo not given)
21,141 to 143,CC1(C)SC(c2ccco2)NC1C(=O)O (stereo not given)
22,213 to 215,Cc1ccc(C)c(NS(=O)(=O)c2ccc(N3CCNC3=O)cc2)c1
23,> 300,NC(=O)C1C(=O)NC(=O)C(C(N)=O)C12CCCCC2 (stereo not given)
24,144 to 146,COc1cc(NC(=O)CC23CC4CC(CC(C4)C2)C3)cc(OC)c1

row,melting point [°C],Structure (SMILES)
1,120 to 121,CCC(Br)C(=O)c1ccc(OC)c(OCC(F)(F)F)c1 (stereo not given)
2,296 to 298,O=c1c2c(c3cccnc3n1-c1ccccc1)OCC(O)C2 (stereo not given)
3,244 to 245,O=c1[nH]c(-c2ccccc2)cn1S(=O)(=O)c1ccc2c(c1)CCN2Cc1cccnc1
4,144 to 146,O=C=Nc1ccc(NCc2ccc(F)c(Cl)c2)c(C(F)(F)F)c1
5,147,CCCCSc1ccc(C(=O)Nc2ccc3cc(CN4CCCC4)cnc3c2C)cc1
6,81 to 83,CCOC(=O)c1[nH]c(C)c(C)c1OCCCl
7,216 to 218,N#Cc1ccc(N2CCN(c3ccnc(Cl)n3)CC2)cc1
8,137 to 138,CCc1noc(-c2cn(-c3cccc(OCc4ccc(Cl)cc4)c3)cn2)n1
9,195 to 197,O=C(O)CCCOc1ccc(C2=NNC(=O)CC2)cc1Cl
10,172 to 173,CC(=O)Nc1cc2c(cc1C#N)C(Nc1ccc(C(=O)OC(C)(C)C)c(F)c1)CC2 (stereo not given)
11,217,COc1ccc(S(=O)(=O)C2(C(=O)O)CCN(Cc3ccc(-c4ccccn4)cc3)CC2)cc1
12,313,O=[N+]([O-])c1cnc2ccc(F)cc2c1O
13,34 to 35,ClCCCc1ccc(OCc2ccccc2)cc1
14,239 to 242,CS(=O)(=O)c1ccc(-c2cnn(-c3ccoc3)c(=O)c2-c2ccc(F)cc2)cc1
15,218 to 220,CCC(CC)c1ccc(Cl)c2nc(Nc3c(C)cc(Br)cc3OC)n(C)c12
16,172 to 176,CC(C)c1ccc(-c2ccc(-c3cccc(C(=O)O)c3)o2)cc1
17,136 to 138,COC(=O)c1sc(Cl)c(Cl)c1NC(C)=O
18,185 to 187,COc1ccc(C(=O)n2c(C(=O)O)cc3cc(OC)ccc32)cc1
19,164 to 165,COC(=O)C1=C(N)CCC(C#N)(c2ccc(OC)c(OCC3CC3)c2)C1 (stereo not given)
20,183 to 184,Cn1c(=O)n2nc(CO)cc2c2ccccc21
21,178,Oc1ccc(Oc2ncc(Br)cn2)cc1
22,130,COC(=S)N(C)C[C@@H]1CN(c2cc(F)c(N3CC(=O)N(C)C3)c(F)c2)C(=O)O1
23,210 to 215,O=C(O)c1c[nH]c(Sc2cc(Cl)c(Cl)cc2Cl)c1
24,190 to 193,COc1ccc(C(Sc2cc(Oc3ccc(F)cc3)ccc2N)C(O)C(=O)O)cc1 (stereo not given)

row,melting point [°C],Structure (SMILES)
1,132 to 133,CC[C@H](C)[C@H](NC(=O)NCc1ccccc1)C(=O)N[C@H](CO)Cc1c[nH]c2ccccc12
2,144 to 146,CNc1cc(NC)cc(C(=O)CS(C)(=O)=O)c1
3,172 to 173,COc1ccccc1C1CC(=O)Oc2ccc(Cl)cc21 (stereo not given)
4,> 300,Cc1[nH]n(Cc2ccc(C(=O)O)cc2)c2nc(-c3ccncc3)nc(=O)c1-2
5,210 to 212,CC(C)CC(SC1CCCCC1)c1c(O)cc(-c2ccccc2)oc1=O (stereo not given)
6,78 to 79,O=C(Cc1ccc(Cl)cc1Cl)c1cccnc1
7,141 to 142,O=C(Nc1ccc([C@@H]2[C@H]3COC(=O)[C@H]32)c(F)c1)OCc1ccccc1
8,220,CC(C)(C)OC(=O)N1CCC(c2n[nH]c(-c3ccccn3)n2)CC1
9,76.5 to 78.2,C#CC1C2=C(c3ccc(OCc4ccccc4)cc3N1C(=O)Oc1ccccc1)C(O[Si](C)(C)C(C)(C)C)CCC2 (stereo not given)
10,142 to 145,CCN(CC)c1cc(F)cc2nc3n(c12)CCCN3c1ccc(Cl)cc1Cl
11,49,CCCOc1ccc(C(C)=O)cc1C(=O)OC
12,154,O=CN(O)[C@@H](CN1C(=O)CNC1=O)CS(=O)(=O)c1ccc(Oc2ccc(OC(F)(F)F)cc2)cc1
13,136 to 139,Cc1nn(C)c2c1c1oc(=O)c(Sc3ccccc3)c(O)c1c(=O)n2-c1ccc(OC(F)(F)F)cc1
14,196,O=C(Nc1ccc(N2CCC(C(C(=O)O)c3ccccc3)CC2)cc1)c1ccccc1-c1ccc(C(F)(F)F)cc1 (stereo not given)
15,81 to 82,CCOC(=O)COc1cc(OC)c2c(c1)OC1(CCCC1)CC2=O
16,> 250,CCCCOc1ccc(-c2nc(-c3ccc(Sc4ccccc4)cc3)nc(-c3ccc(OCCCC)cc3O)n2)c(O)c1
17,213 to 214,Oc1ccc(C=Cc2cccc(O)c2)cc1
18,95 to 102,C(=C\c1cc(/C=C/c2ccc3[nH]ccc3c2)n[nH]1)/c1ccc(OCc2ccccn2)cc1
19,68 to 72,CC(C)(C)c1ccccc1N1CCN(C(=O)Nc2ccccc2)CC1
20,174 to 177,CC(=O)Nc1ccn(C2OC(COC(C)=O)CC2OC(C)=O)c(=O)n1 (stereo not given)
21,265 to 268,Cc1cc(-c2ccc(F)cc2)nc(O)n1
22,135 to 138,COC(=O)c1ccc(OCC2CC(=O)N(c3ccc(OCCn4ccnc4)cc3)C2)cc1 (stereo not given)
23,228 to 232,Cc1c(C(=O)N2C[C@@H](C)N[C@@H](C)C2)c2ccccc2n2cnc(C(=O)OC(C)(C)C)c12
24,180 to 182,CCOC(=O)c1ccc(-c2cnc3c(c2)N(Cc2c(F)ccc(F)c2Cl)C(=O)CN3)cc1

row,melting point [°C],Structure (SMILES)
1,143 to 145,CNC(=O)CCN1c2ccccc2N2CCc3cccc(c32)C1C (stereo not given)
2,133 to 134,Cc1nc2c(OCc3c(Cl)ccc(NC(C)C)c3Cl)cccn2c1Br
3,193 to 196,CN1C2CCCC1CC(NC(=O)c1cccc3nc(-c4ccc(Cl)cc4)oc13)C2 (stereo not given)
4,279 to 282,COc1ccc(-n2nc3c4c([nH]cc-3c2=O)CCCC4)cc1
5,129 to 131,CCNc1cc(N2CCN(C(=O)OC(C)(C)C)CC2)c(F)cc1[N+](=O)[O-]
6,> 200,Cc1ccc(S(=O)(=O)N2CCC[C@H]2C(=O)N[C@@H](CCCCN)C(=O)O)cc1 (Tos-Pro-Lys-OH)
7,228 to 231,O=[N+]([O-])c1cccc(-c2nnc(Nc3cccc(Br)c3)s2)c1
8,96 to 98,COC(=O)Nc1ccc(O)c(Cl)c1
9,139 to 141,O=C1c2ccccc2C(=O)N1CCC=Cc1csc(-c2ccccn2)n1
10,90 to 91,CNC(=C[N+](=O)[O-])NCCCCc1ccccn1
11,105 to 109,CC(C)CC(C=O)NC(=O)C(Cc1c[nH]cn1)NC(=O)C(CNC(=O)Cc1cccc2ccccc12)Cc1ccccc1 (stereo not given)
12,86.7 to 88.2,CCC=C(CCC)c1c2c(nn1C)N(c1c(C)cc(C)cc1Cl)CCC2
13,169 to 170,COc1c(Oc2ccccc2C)cccc1C(N)C(=O)O (stereo not given)
14,287 to 289,N#Cc1cccc2c(O)c(C(=O)NCc3ccc(Cl)cc3)cnc12
15,12.7,C=CCCOC[C@H]1CC[C@H](c2ccc(C#N)cc2)CC1
16,68 to 69,CC(=O)OCC1OC(F)C(OC(C)=O)C(OC(C)=O)C1OC(C)=O (stereo not given)
17,192 to 194,O=C(/C=C/c1c[nH]c2ccccc12)c1cccnc1
18,56 to 57,CCCCNC(=O)Cc1ccccc1
19,165 to 168,c1cnc(Sc2cccc3cccnc23)nc1
20,80 to 83,CCCCCCCCCCCCCCCCCC(=O)NCCOCCn1c(CCOC)nc2c(N)nc3ccccc3c21
21,141,CC(=O)OC1CSC(Oc2ccc(Cl)nc2)C(OC(C)=O)C1OC(C)=O (stereo not given)

row,Structure (SMILES),melting point [°C]
1,Cc1c(C(N)=O)nnn1Cc1ccccc1Cl,181 to 183
2,Cc1cc2c(cc1-c1ccc(C#CC(=O)O)s1)C(C)(C)CCC2(C)C,138 to 140
3,CCOC(=O)c1ncn2c1[C@@H]1CCCN1C(=O)c1c(Br)cccc1-2,191 to 192
4,CN(CCO)C(=O)C(C)(C)NC(=O)c1cc2c(n(CC3CCCCC3)c1=O)CCCCCC2,195 to 196
5,COc1ccc2cc(C3=CC4CCC(C3)N4)ccc2c1 (stereo not given),138
6,CCCC(CCC)C(=O)OC1N=C(c2ccccc2Cl)c2cc(Cl)ccc2NC1=O (stereo not given),191 to 193
7,CN(C)CCc1cc2occc2c(=O)[nH]1,97.5 to 98

# — a melting point compilation (Tetko et al.; mined from patent text by program, amines drawn as free bases though some values may be those of a salt)
